In the experiment the target is T1, Syk kinase (Homo sapiens, UniProt P43405).
T1 construct: purchased Millipore 14-314
The experiment in a line: ELISA-based Syk kinase assay (phosphorylation of HS1 peptide substrate by isolated Syk kinase). It is filed as biochemical. The conditions noted are these: IC50 of Syk kinase inhibition; 2 μM ATP, 2 μM peptide substrate. As to the method:
Compounds were tested for the ability to inhibit Syk kinase catalyzed phosphorylation of a peptide substrate in an assay with isolated Syk kinase.
An assay was carried out in a Costar white 96 well plate (Fisher Scientific, Cat No. 07-200-591) coated overnight with 0.01 mg/ml Neutravidin (Pierce, 100 μl/well) at 4° C. Neutravidin pre-coated 96 well plates were blocked with 2% BSA in PBST buffer for at least 1 hour before starting the assay at room temperature. Serially diluted compound stock solution containing a subject compound was prepared separately in DMSO solution starting from 300 μM and 2 μl of this diluted compound (3% DMSO final concentration) was added directly to neutravidin coated assay plate containing 55.5 μl/well of kinase reaction buffer composed of 20 mM HEPES, pH 7.4, 5 mM MgCl2, 2 mM MnCl2, 1 mM DTT, 0.01% Tween 20 pre-mixed with ATP and kinase substrate (HS1 peptide). Reaction was initiated by adding of 2.5 μl/well Syk kinase (Millipore, Cat No. 14-314) resulting in a final reaction volume of 60 μl and then the reaction was allowed to continue for 30 minutes at room temperature. Final enzyme reaction conditions were 20 mM HEPES, pH 7.4, 5 mM MgCl2, 2 mM MnCl2, 1 mM DTT, 0.01% Tween 20, 0.25 ng Syk, 2 μM ATP, 2 μM peptide substrate (Biotin-EQEDEPEGDYEEVLE-CONH2, SynPep Corporation). After completing the reaction, assay plate was washed three times with PBST and incubated for 1 hour at room temperature with 100 μl/well of phosphopeptide detection antibody solution prepared by mixing 1-1000 diluted mouse anti-pTyr monoclonal antibody (Cell Signal Technology, Cat No. 9411) and 1-1000 diluted goat HRP-conjugated anti-mouse IgG (Jackson Immunoresearch, Cat. No. 115-035-003). Before developing the plate with supersignal ELISA pico chemiluminescent substrate (Pierce), plate was washed three times again with PBST and were read on a SpectraMax M5 microplate reader (Moleculear Devices).
Background: An ELISA detects its analyte on a solid surface through an enzyme-linked reagent.

In patent US8377945B2, “Small molecule inhibitors of spleen tyrosine kinase (SYK)” (Rigel Pharmaceuticals Inc., priority 2009, dated 2013) one finds IC50 data, which are given here for 58 compounds.

Usually IC50 stands for the concentration that inhibits the measured activity by half.

Molecules are shown by their SMILES.

As to `COc1ccc(Nc2c(-c3cc(Cl)c(OC)c(OC)c3)[nH]c3c(C#N)cnn23)cc1OC` [Compound 58], the IC50 was 0.51 to 2.99 µM.

The compound `COC(=O)c1cccc(Nc2c(-c3cc(OC)c(OC)c(OC)c3)[nH]c3c(C#N)cnn23)c1` [Compound 67] yielded an IC50 of 0.51 to 2.99 µM.

For `COc1cc(-c2[nH]c3c(C#N)cnn3c2Nc2ccc(OC(F)(F)F)cc2)cc(OC)c1OC` [Compound 131], the IC50 was 0.51 to 2.99 µM.

In turn, `COC(=O)c1cccc(Nc2c(-c3cc(Cl)c(OC)c(OC)c3)[nH]c3c(C#N)cnn23)c1` [Compound 78] returned an IC50 of 3 to 25 µM.

`CC(=O)Nc1cccc(Nc2c(-c3ccc4c(c3)NC(=O)CO4)[nH]c3c(C#N)cnn23)c1` [Compound 31] came in with an IC50 of 0.51 to 2.99 µM.

Consider `COc1cc(-c2[nH]c3c(C#N)cnn3c2NC(C)(C)CC(C)(C)C)cc(OC)c1OC` [Compound 11], for which the half-maximal inhibitory concentration (IC50) is over 25 µM.

The compound `COc1cc(-c2[nH]c3c(C#N)cnn3c2NCC2CCNCC2)cc(OC)c1OC` [Compound 74] yielded an IC50 of 3 to 25 µM.

In the case of `COc1cccc(C(=O)Nc2c(-c3cc(OC)c(OC)c(OC)c3)[nH]c3c(C#N)cnn23)c1` [Compound 21], the IC50 was over 25 µM.

In the case of `COC(=O)[C@H](Cc1ccccc1)Nc1c(-c2cc(OC)c(OC)c(OC)c2)[nH]c2c(C#N)cnn12` [Compound 76], the concentration for half-maximal inhibition (IC50) fell in the range of 3 to 25 µM.

The compound `COc1cc(Nc2c(-c3cc(OC)c(OC)c(OC)c3)[nH]c3c(C#N)cnn23)ccc1OCCN1CCCC1` [Compound 129] came in with an IC50 of 0.51 to 2.99 µM.

Compound `CC(=O)Nc1ccc(Nc2c(-c3ccc4c(c3)NC(=O)CO4)[nH]c3c(C#N)cnn23)cc1` [Compound 68] gave a half-inhibitory concentration (IC50) of 3 to 25 µM.

`COc1cc(-c2[nH]c3c(C#N)cnn3c2NC(=O)c2ccccc2)cc(OC)c1OC` [Compound 19] gave an IC50 of 3 to 25 µM.

On to `COc1cc(Nc2c(-c3cc(OC)c(OC)c(OC)c3)[nH]c3c(C#N)cnn23)ccc1OC1CCCC1` [Compound 128], for which the 50% inhibitory concentration (IC50) was in the range of 0.51 to 2.99 µM.

The compound `COc1ccc(Nc2c(-c3cc(OC)c(OC)c(OC)c3)[nH]c3c(C#N)cnn23)cc1OC1CCCC1` [Compound 115] yielded a 50% inhibitory concentration (IC50) of 0.51 to 2.99 µM.

In the case of `COc1cc(-c2[nH]c3c(C#N)cnn3c2Nc2ccc(C)c(F)c2)cc(OC)c1OC` [Compound 121], the IC50 was in the range of 0.51 to 2.99 µM.

The compound `CC(=O)Nc1ccc(Nc2c(-c3ccc4c(c3)OCCO4)[nH]c3c(C#N)cnn23)cc1` [Compound 63] had an IC50 of 3 to 25 µM.

Consider `COc1ccc2c(-c3[nH]c4c(C#N)cnn4c3Nc3ccc(NC(C)=O)cc3)c[nH]c2c1` [Compound 62], for which the half-maximal inhibitory concentration (IC50) was in the range of 3 to 25 µM.

As for `COc1cc(Nc2c(-c3ccc4cc[nH]c4c3)[nH]c3c(C#N)cnn23)cc(OC)c1OC` [Compound 26], the 50% inhibitory concentration (IC50) fell in the range of 3 to 25 µM.

On to `COc1ccc(Nc2c(Cc3ccccc3)[nH]c3c(C#N)cnn23)cc1OC` [Compound 55], for which the concentration for half-maximal inhibition (IC50) lay in the range of 3 to 25 µM.

The compound `COc1cc(Nc2c(-c3ccc(N4CCOCC4)cc3)[nH]c3c(C#N)cnn23)cc(OC)c1OC` [Compound 79] came in with a concentration for half-maximal inhibition (IC50) of 3 to 25 µM.

In the case of `COc1cc(-c2[nH]c3c(C#N)cnn3c2Nc2cccc(OC(F)(F)F)c2)cc(OC)c1OC` [Compound 110], the IC50 lay in the range of 0.51 to 2.99 µM.

As to `COc1cc(-c2[nH]c3c(C#N)cnn3c2Nc2ccc(N3CCC(N4CCCC4)CC3)c(F)c2)cc(OC)c1OC` [Compound 75], the IC50 lay within 0.51 to 2.99 µM.

Compound `COc1cc(-c2[nH]c3c(C#N)cnn3c2NC(=O)c2ccc(F)cc2)cc(OC)c1OC` [Compound 20] displayed a half-inhibitory concentration (IC50) of 3 to 25 µM.

As for `COc1cccc(CNc2c(-c3cc(OC)c(OC)c(OC)c3)[nH]c3c(C#N)cnn23)c1` [Compound 46], the IC50 lay in the range of 3 to 25 µM.

The compound `N#Cc1cccc(Nc2c(-c3ccc4c(c3)NC(=O)CO4)[nH]c3c(C#N)cnn23)c1` [Compound 9] returned an IC50 of 3 to 25 µM.

On to `COc1cc(Nc2c(-c3ccc(C(N)=O)cc3)[nH]c3c(C#N)cnn23)cc(OC)c1OC` [Compound 81], for which the concentration for half-maximal inhibition (IC50) was 3 to 25 µM.

`N#Cc1cnn2c(Nc3ccc(Br)cc3)c(-c3ccc(N4CCOCC4)cc3)[nH]c12` [Compound 80] gave an IC50 of 0.51 to 2.99 µM.

On to `COc1cc(-c2[nH]c3c(C#N)cnn3c2Nc2ccc(CNC(=O)OC(C)(C)C)cc2)cc(OC)c1OC` [Compound 65], for which the IC50 lay in the range of 0.51 to 2.99 µM.

As for `N#Cc1cnn2c(Nc3ccc(N4CCOCC4)cc3)c(-c3ccc4cc[nH]c4c3)[nH]c12` [Compound 27], the half-inhibitory concentration (IC50) was 0.51 to 2.99 µM.

In turn, `COC(=O)c1cccc(Nc2c(-c3ccc(OC)c(OC)c3)[nH]c3c(C#N)cnn23)c1` [Compound 77] came in with a half-maximal inhibitory concentration (IC50) of 0.51 to 2.99 µM.

In turn, `COc1ccc(Nc2c(-c3cc(F)c(F)c(F)c3)[nH]c3c(C#N)cnn23)cc1OC` [Compound 57] had a half-inhibitory concentration (IC50) of 3 to 25 µM.

`COC(=O)COc1ccc(-c2[nH]c3c(C#N)cnn3c2Nc2cccc(C(=O)OC)c2)cc1OC` [Compound 84] yielded an IC50 of 0.51 to 2.99 µM.

`COc1ccc(CCNc2c(-c3cc(OC)c(OC)c(OC)c3)[nH]c3c(C#N)cnn23)cc1OC` [Compound 41] had an IC50 of over 25 µM.

Take `N#Cc1cnn2c(Nc3ccc4c(c3)OCCO4)c(-c3ccc4cc[nH]c4c3)[nH]c12` [Compound 60]: the IC50 fell in the range of 3 to 25 µM.

In turn, `COc1cc(-c2[nH]c3c(C#N)cnn3c2Nc2ccc(N3CCCC3)c(F)c2)cc(OC)c1OC` [Compound 134] displayed a half-inhibitory concentration (IC50) of 0.51 to 2.99 µM.

Consider `COc1cc(-c2[nH]c3c(C#N)cnn3c2Nc2ccc(F)c(C(F)(F)F)c2)cc(OC)c1OC` [Compound 130], for which the 50% inhibitory concentration (IC50) fell in the range of 0.51 to 2.99 µM.

Compound `COc1cc(-c2[nH]c3c(C#N)cnn3c2NC(=O)COc2ccccc2)cc(OC)c1OC` [Compound 54] registered a concentration for half-maximal inhibition (IC50) of over 25 µM.

With `COC(=O)COc1ccc(-c2[nH]c3c(C#N)cnn3c2Nc2ccc(F)c(OC)c2)cc1OC` [Compound 123], the IC50 was 0.51 to 2.99 µM.

`COc1cc(-c2[nH]c3c(C#N)cnn3c2NCC2CCN(C(=O)OC(C)(C)C)CC2)cc(OC)c1OC` [Compound 73] yielded a half-maximal inhibitory concentration (IC50) of 3 to 25 µM.

`CC(=O)Nc1ccc(-c2[nH]c3c(C#N)cnn3c2Nc2cccc(NC(C)=O)c2)cc1` [Compound 34] gave an IC50 of 3 to 25 µM.

Turning to `COC(=O)c1cccc(Nc2c(-c3ccc(OC)c(OCC(=O)O)c3)[nH]c3c(C#N)cnn23)c1` [Compound 86], the 50% inhibitory concentration (IC50) is 0.51 to 2.99 µM.

Consider `COc1ccc(Nc2c(-c3ccc(F)cc3F)[nH]c3c(C#N)cnn23)cc1OC` [Compound 36], for which the half-maximal inhibitory concentration (IC50) is 3 to 25 µM.

The compound `COc1cc(-c2[nH]c3c(C#N)cnn3c2Nc2ccc(Cl)c(Cl)c2)cc(OC)c1OC` [Compound 22] came in with a half-inhibitory concentration (IC50) of 0.51 to 2.99 µM.

In the case of `COc1cc(-c2[nH]c3c(C#N)cnn3c2N)cc(OC)c1OC` [Compound 17], the IC50 is 3 to 25 µM.

`COc1ccc(-c2[nH]c3c(C#N)cnn3c2Nc2ccc(NC(C)=O)cc2)cc1OC` [Compound 69] showed an IC50 of 0.51 to 2.99 µM.

`COc1cc(-c2[nH]c3c(C#N)cnn3c2NC(=O)CBr)cc(OC)c1OC` [Compound 53] registered an IC50 of over 25 µM.

Consider `COC(=O)c1ccc(Nc2c(-c3cc(O)c(OC)c(OC)c3)[nH]c3c(C#N)cnn23)cc1` [Compound 71], for which the concentration for half-maximal inhibition (IC50) was in the range of 0.51 to 2.99 µM.

Turning to `COc1ccc(-n2cc(C#N)c3nc(-c4cc(OC)c(OC)c(OC)c4)c(N)n32)cc1` [Compound 82], the IC50 lay in the range of 3 to 25 µM.

In turn, `COc1ccc(Nc2c(-c3ccc(F)c(F)c3)[nH]c3c(C#N)cnn23)cc1OC` [Compound 37] had an IC50 of 0.51 to 2.99 µM.

For the compound `COc1cc(-c2[nH]c3c(C#N)cnn3c2Nc2ccc(OC)c(OC)c2)ccc1F` [Compound 59], the IC50 is 0.51 to 2.99 µM.

The compound `COc1cc(-c2[nH]c3c(C#N)cnn3c2NC(=O)c2nnc(-c3ccccc3)o2)cc(OC)c1OC` [Compound 39] gave an IC50 of 3 to 25 µM.

`COc1ccc(CC(=O)Nc2c(-c3cc(OC)c(OC)c(OC)c3)[nH]c3c(C#N)cnn23)cc1OC` [Compound 42] showed an IC50 of over 25 µM.

For the compound `COc1ccc(CCNc2c(-c3ccc4c(c3)NC(=O)CO4)[nH]c3c(C#N)cnn23)cc1OC` [Compound 40], the concentration for half-maximal inhibition (IC50) is 3 to 25 µM.

In turn, `COc1cc(-c2[nH]c3c(C#N)cnn3c2Nc2ccc3c(c2)OCCO3)cc(O)c1OC` [Compound 70] came in with a 50% inhibitory concentration (IC50) of 0.51 to 2.99 µM.

Compound `COc1cc(-c2[nH]c3c(C#N)cnn3c2Nc2ccc(CN)cc2)cc(OC)c1OC` [Compound 66] yielded a half-maximal inhibitory concentration (IC50) of 3 to 25 µM.

The compound `COc1cc(Nc2c(-c3cc(OC)c(OC)c(OC)c3)[nH]c3c(C#N)cnn23)cc(OC)c1OC` [Compound 29] displayed an IC50 of 3 to 25 µM.

In the case of `COc1cccc(CNc2c(-c3ccc4c(c3)NC(=O)CO4)[nH]c3c(C#N)cnn23)c1` [Compound 35], the half-inhibitory concentration (IC50) is 3 to 25 µM.

On to `COc1cc(-c2[nH]c3c(C#N)cnn3c2NC(=O)c2ccc(C(F)(F)F)c(F)c2)cc(OC)c1OC` [Compound 18], for which the half-maximal inhibitory concentration (IC50) lay in the range of 3 to 25 µM.
